# Source: patent US9650339B2, “Inhibitors of histone demethylases” (Gilead Sciences, Inc., priority 2013, dated 2017)
# How the values were obtained:
# Format in all cases: biochemical
# KDM5B (PLU-1) = target: T1, KDM5B (PLU-1) (Homo sapiens, UniProt Q9UGL1); test: Histone lysine demethylase AlphaLISA assay, KDM5B; conditions: read-out: KDM5B HDME Inhibition IC50
# T1 sequence (Q9UGL1 1-809): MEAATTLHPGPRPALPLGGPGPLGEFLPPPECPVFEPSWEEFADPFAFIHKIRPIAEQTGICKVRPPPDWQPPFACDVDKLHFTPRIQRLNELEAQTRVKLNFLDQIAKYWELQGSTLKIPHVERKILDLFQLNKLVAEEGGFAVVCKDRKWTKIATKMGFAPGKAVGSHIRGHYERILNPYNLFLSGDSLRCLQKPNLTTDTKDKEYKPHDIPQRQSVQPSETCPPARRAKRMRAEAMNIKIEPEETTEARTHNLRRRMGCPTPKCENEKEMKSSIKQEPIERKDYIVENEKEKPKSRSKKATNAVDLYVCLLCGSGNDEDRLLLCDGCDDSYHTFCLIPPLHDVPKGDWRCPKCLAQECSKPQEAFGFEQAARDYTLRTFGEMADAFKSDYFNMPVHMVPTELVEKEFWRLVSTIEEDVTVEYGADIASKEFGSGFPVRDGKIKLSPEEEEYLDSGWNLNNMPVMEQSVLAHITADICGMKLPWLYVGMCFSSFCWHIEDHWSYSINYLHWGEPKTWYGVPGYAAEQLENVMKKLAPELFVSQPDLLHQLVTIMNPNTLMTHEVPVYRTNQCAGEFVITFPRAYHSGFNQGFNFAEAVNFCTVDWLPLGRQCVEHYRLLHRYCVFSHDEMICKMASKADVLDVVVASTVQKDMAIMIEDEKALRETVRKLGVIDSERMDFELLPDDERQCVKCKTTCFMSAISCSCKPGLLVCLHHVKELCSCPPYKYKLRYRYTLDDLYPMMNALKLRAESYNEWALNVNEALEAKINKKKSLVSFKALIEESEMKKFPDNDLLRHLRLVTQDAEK
# Procedure, shortened: (§1)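 AlphaLISA demethylation readout: enzyme preincubated 10 min, then 10 min with compounds in 3% DMSO buffer, before biotinylated methyl-lysine histone peptide substrate with 25 μM L-Asc and 10 μM α-KG, room temperature. Acceptor beads then streptavidin donor beads added, dark incubation, plates read.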
# KDM2B (FBXL10) = target: T2, KDM2B (FBXL10) (Homo sapiens, UniProt Q8NHM5); test: Histone lysine demethylase AlphaLISA assay, KDM2B; conditions: read-out: KDM2B HDME Inhibition IC50
# T2 sequence (Q8NHM5 1-650): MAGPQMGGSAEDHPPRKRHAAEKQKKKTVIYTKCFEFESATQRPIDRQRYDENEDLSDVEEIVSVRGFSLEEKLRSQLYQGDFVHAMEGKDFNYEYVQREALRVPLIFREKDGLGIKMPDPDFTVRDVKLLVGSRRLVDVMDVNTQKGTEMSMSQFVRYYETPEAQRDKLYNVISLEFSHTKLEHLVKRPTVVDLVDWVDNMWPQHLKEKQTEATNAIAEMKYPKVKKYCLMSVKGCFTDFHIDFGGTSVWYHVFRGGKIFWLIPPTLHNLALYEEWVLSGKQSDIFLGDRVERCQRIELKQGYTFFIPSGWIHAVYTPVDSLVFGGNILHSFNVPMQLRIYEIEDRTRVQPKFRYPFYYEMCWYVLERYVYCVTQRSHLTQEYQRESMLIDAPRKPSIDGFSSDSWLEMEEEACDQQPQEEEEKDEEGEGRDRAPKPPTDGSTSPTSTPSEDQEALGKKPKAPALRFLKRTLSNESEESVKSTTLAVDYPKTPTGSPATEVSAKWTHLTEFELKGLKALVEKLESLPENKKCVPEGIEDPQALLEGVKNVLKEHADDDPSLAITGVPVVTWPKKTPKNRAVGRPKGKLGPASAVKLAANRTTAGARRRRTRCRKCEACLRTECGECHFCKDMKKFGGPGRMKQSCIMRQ
# Procedure, shortened: as §1
# KDM4B (JMJD2B) = target: T3, KDM4B (JMJD2B) (Homo sapiens, UniProt O94953); test: Histone lysine demethylase AlphaLISA assay, KDM4B; conditions: read-out: KDM4B HDME Inhibition IC50
# T3 construct: 2-500; purchased BPS; host or cells: Bac (baculovirus system)
# T3 sequence (O94953 2-500): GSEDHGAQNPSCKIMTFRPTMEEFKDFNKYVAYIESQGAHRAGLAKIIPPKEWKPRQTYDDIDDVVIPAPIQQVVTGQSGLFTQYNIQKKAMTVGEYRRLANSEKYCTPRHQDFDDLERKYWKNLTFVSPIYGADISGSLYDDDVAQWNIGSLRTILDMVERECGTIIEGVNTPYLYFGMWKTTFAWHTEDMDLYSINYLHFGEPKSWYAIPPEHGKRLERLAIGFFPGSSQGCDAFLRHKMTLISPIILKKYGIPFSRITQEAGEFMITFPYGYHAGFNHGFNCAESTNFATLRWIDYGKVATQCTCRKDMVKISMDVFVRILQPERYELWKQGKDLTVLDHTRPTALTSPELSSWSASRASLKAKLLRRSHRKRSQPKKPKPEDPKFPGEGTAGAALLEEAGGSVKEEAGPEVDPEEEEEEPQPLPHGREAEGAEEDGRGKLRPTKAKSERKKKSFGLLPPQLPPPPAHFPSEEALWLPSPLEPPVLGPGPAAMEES
# Procedure, shortened: as §1
# KDM6B (JMJD3) = target: T4, KDM6B (JMJD3) (Homo sapiens, UniProt O15054); test: Histone lysine demethylase AlphaLISA assay, KDM6B; conditions: read-out: KDM6B HDME Inhibition IC50
# T4 construct: 1043-end; purchased BPS; host or cells: Bac (baculovirus system)
# T4 sequence (O15054 1043-1682 isoform O15054-1 limits assumed): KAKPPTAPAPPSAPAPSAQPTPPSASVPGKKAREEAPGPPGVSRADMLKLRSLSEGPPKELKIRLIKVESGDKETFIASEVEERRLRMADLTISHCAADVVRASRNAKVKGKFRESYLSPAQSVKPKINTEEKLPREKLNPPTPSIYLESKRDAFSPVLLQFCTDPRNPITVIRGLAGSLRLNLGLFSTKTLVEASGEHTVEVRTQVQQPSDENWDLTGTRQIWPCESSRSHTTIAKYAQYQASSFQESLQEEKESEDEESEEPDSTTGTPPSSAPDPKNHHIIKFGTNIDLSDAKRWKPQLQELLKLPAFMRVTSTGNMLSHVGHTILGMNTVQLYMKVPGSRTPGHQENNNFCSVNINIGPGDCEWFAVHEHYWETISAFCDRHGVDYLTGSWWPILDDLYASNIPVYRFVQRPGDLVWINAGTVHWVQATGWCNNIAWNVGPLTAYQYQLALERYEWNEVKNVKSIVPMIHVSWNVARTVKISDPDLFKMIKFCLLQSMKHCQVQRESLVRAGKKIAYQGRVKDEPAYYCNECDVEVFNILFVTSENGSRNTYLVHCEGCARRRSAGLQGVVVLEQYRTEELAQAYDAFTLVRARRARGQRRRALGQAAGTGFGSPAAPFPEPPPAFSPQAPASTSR
# Procedure, shortened: as §1
IC50 (KDM5B (PLU-1)),IC50 (KDM2B (FBXL10)),IC50 (KDM4B (JMJD2B)),IC50 (KDM6B (JMJD3)),SMILES
< 0.25 µM,> 2.5 µM,< 0.25 µM,> 2.5 µM,"O=Cc1ccnc(CNCC(=O)N2CCC(Cc3ccccc3)CC2)c1 [Compound 106, 2-({[2-(4-benzylpiperidin-1-yl)-2-oxoethyl]-amino}methyl)-pyridine-4-carbaldehyde]"
0.25 to 2.5 µM,> 2.5 µM,> 2.5 µM,> 2.5 µM,"c1ccc(CN2CCC[C@H]2CNCc2cc(CNCC3CC3)ccn2)cc1 [Compound 16, {[(2S)-1-benzylpyrrolidin-2-yl]methyl}[(4-{[(cyclopropylmethyl)-amino]methyl}pyridin-2-yl)methyl]amine]"
< 0.25 µM,> 2.5 µM,< 0.25 µM,> 2.5 µM,CCN(CCN(C)C)C(=O)CNCc1cc(/C=N/CCO)ccn1 [Compound 66]
< 0.25 µM,0.25 to 2.5 µM,< 0.25 µM,> 2.5 µM,"CCN(CC)C(=O)CNCc1cc(/C=N/CCC2CCCCC2)ccn1 [Compound 57, 2-[({4-[[(2-cyclohexylethyl)imino]-methyl]pyridin-2-yl}methyl)amino]-N,N-diethylacetamide]"
< 0.25 µM,> 2.5 µM,> 2.5 µM,0.25 to 2.5 µM,"C(=N\C1CC1)/c1ccnc(CNCCCCN2CCC2)c1 [Compound 44, N-{[2-({[4-(azetidin-1-yl)butyl]amino}methyl)-pyridin-4-yl]methylidene}-cyclopropanamine]"
< 0.25 µM,> 2.5 µM,0.25 to 2.5 µM,> 2.5 µM,"CN(C)CCCCCNCc1cc(/C=N/C2CC2)ccn1 [Compound 47, N-{[2-({[5-(dimethylamino)-pentyl]amino}-methyl)pyridin-4-yl]methylidene}-cyclopropanamine]"
< 0.25 µM,0.25 to 2.5 µM,< 0.25 µM,0.25 to 2.5 µM,"O=C(CNCc1cc(/C=N/C2CC2)ccn1)NC1CCN(Cc2ccccc2)C1 (stereo not drawn) [Compound 53, N-(1-benzylpyrrolidin-3-yl)-2-[({4-[N-cyclopropyl-carboximidoyl]pyridin-2-yl}methyl)amino]-acetamide]"
> 2.5 µM,> 2.5 µM,< 0.25 µM,> 2.5 µM,"CCN(CC)CCCCN(Cc1cc(CNC(=O)C(F)(F)F)ccn1)C(=O)C(F)(F)F [Compound 6, N-[4-(diethylamino)butyl]-- 2,2,2-trifluoro-N-({4-[(trifluoroacetamido)-methyl]pyridin-2-yl}methyl)acetamide]"
0.25 to 2.5 µM,> 2.5 µM,0.25 to 2.5 µM,> 2.5 µM,"C#CCN(C)C(=O)CNCc1cc(/C=N/C2CC2)ccn1 [Compound 56, 2-[({4-[N-cyclopropyl-carboximidoyl]-pyridin-2-yl}methyl)amino]-N-methyl-N-(prop-2-yn-1-yl)acetamide]"
< 0.25 µM,> 2.5 µM,> 2.5 µM,> 2.5 µM,"CN(C)C/C=C/CNCc1cc(C=O)ccn1 [Compound 98, 2-({[(2E)-4-(dimethylamino)but-2-en-1-yl]amino}-methyl)pyridine-4-carbaldehyde]"
< 0.25 µM,> 2.5 µM,0.25 to 2.5 µM,> 2.5 µM,"CN1CCCC1CCNCc1cc(/C=N/C2CC2)ccn1 (stereo not drawn) [Compound 40, N-{[2-({[2-(l-methylpyrrolidin-2-yl)ethyl]amino}methyl)-pyridin-4-yl]methylidene}-cyclopropanamine]"
0.25 to 2.5 µM,> 2.5 µM,< 0.25 µM,> 2.5 µM,"CN(C)CCCNCc1cc(CN)ccn1 [Compound 3, [2-({[3-(dimethylamino)propyl]-amino}methyl)pyridin-4-yl]methanamine]"
0.25 to 2.5 µM,> 2.5 µM,> 2.5 µM,> 2.5 µM,"COc1ccccc1CN1CCC(NC(=O)CNCc2cc(CN)ccn2)CC1 [Compound 9, 2-({[4-(aminomethyl)pyridin-2-yl]methyl}amino)-N-{1-[(2-methoxyphenyl)methyl]-piperidin-4-yl}acetamide]"
> 2.5 µM,> 2.5 µM,> 2.5 µM,> 2.5 µM,"CN(C)CCCCNCc1cc(CNC2CC2)ccn1 [Compound 10, N-{[2-({[4-(dimethylamino)butyl]-amino}methyl)pyridin-4-yl]methyl}-cyclopropanamine]"
< 0.25 µM,> 2.5 µM,< 0.25 µM,> 2.5 µM,"CON=Cc1ccnc(CNCCCN(C)C)c1 [Compound 64, [3-(dimethylamino)-propyl]({4-[(methoxyimino)-methyl]pyridin-2-yl}methyl)amine]"
0.25 to 2.5 µM,> 2.5 µM,0.25 to 2.5 µM,> 2.5 µM,"CN(C)C(=O)CNCc1cc(CNCCF)ccn1 [Compound 14, 2-{[(4-{[(2-fluoroethyl)amino]-methyl}pyridin-2-yl)methyl]amino}-N,N-dimethylacetamide]"
< 0.25 µM,> 2.5 µM,0.25 to 2.5 µM,> 2.5 µM,"O=Cc1ccnc(CNCC(=O)N2CCC[C@@H]2CN2CCCC2)c1 [Compound 102, 2-[({2-oxo-2-[(2R)-2-(pyrrolidin-1-ylmethyl)pyrrolidin-1-yl]ethyl}amino)-methyl]pyridine-4-carbaldehyde]"
0.25 to 2.5 µM,> 2.5 µM,< 0.25 µM,> 2.5 µM,"CCN(CC)CCCCNCc1cc(CNC(=O)C(F)(F)F)ccn1 [Compound 1, N-{[2-({[4-(diethylamino)butyl]-amino}methyl)pyridin-4-yl]methyl}-2,2,2-trifluoroacetamide]"
< 0.25 µM,> 2.5 µM,0.25 to 2.5 µM,> 2.5 µM,"CN(C)CCC/N=C/c1ccnc(CNCCCN(C)C)c1 [Compound 37, [3-(dimethylamino)propyl]-({4-[{[3-(dimethylamino)propyl]-imino}methyl]pyridin-2-yl}methyl)amine]"
0.25 to 2.5 µM,0.25 to 2.5 µM,< 0.25 µM,> 2.5 µM,"CCSCCNCc1cc(/C=N/C2CC2)ccn1 [Compound 39, N-{[2-({[2-(ethylsulfanyl)-ethyl]amino}methyl)pyridin-4-yl]methylidene}-cyclopropanamine]"
< 0.25 µM,0.25 to 2.5 µM,> 2.5 µM,> 2.5 µM,"CCCCCCCC/N=C/c1ccnc(CNCC(=O)N(CC)CC)c1 [Compound 58, N,N-diethyl-2-[({4-[(octylimino)methyl]-pyridin-2-yl}methyl)amino]-acetamide]"
